Patent publication US20210275503A1, “TARGETING HOMOLOGOUS RECOMBINATION: A NEW SYTHETIC LETHAL THERAPEUTIC PARADIGM” (Cyteir Therapeutics, Inc., priority 2020, published 2021)
Entries after “also recorded” stand apart in the source; their conditions may differ.

Key:
[1] = Compound 67A pharmacokinetics in human subjects; format: in vivo; details: for Cmax / Tmax / AUC(0-t): in vivo, human subjects
Method: Compound 67A pharmacokinetics were analyzed in human subjects (Table 1, FIGS. 2A-2B)

[2] = tested on: advanced hematologic and solid tumors; assay: Phase 1/2 monotherapy: clinical efficacy (Lugano, RECIST v1.1); format: in vivo, human; details: for time on treatment: treatment ongoing
Method: Compound 67A was analyzed in hematological and solid tumors. Dose escalation studies comprised of subjects with B-cell non-Hodgkin's lymphoma, chronic lymphocytic leukemia, multiple myeloma, breast cancer, head and neck cancer, soft tissue sarcoma, and ovarian cancer. Backfill studies comprised of subjects with diffuse large b-cell lymphoma (DLBCL), B-cell malignancies, pancreatic cancer, small-cell lung cancer, and HPV+HNSCC. Dosage for the Phase 1/2 monotherapy study is seen in FIG. 4.
Subjects with advanced hematologic and solid tumors were treated with continuous 28-day cycles of increasing doses of Compound 67A with an accelerated titration and 3+3 trial design. As of Dec. […] Six subjects (26.1%) experienced a Compound 67A-related adverse event with only Grade 1/2 nausea (n=3, 13%) and constipation (n=2, 8.7%) occurring in >1 subject. There were no reported Compound 67A-related myelosuppression, serious adverse events, study discontinuation, or deaths.
Ten subjects were response evaluable prior to the data cut off.

[3] = Phase 1/2 monotherapy: safety and tolerability; format: in vivo; details: 23 subjects
From the text: Dose escalation studies comprised of subjects with B-cell non-Hodgkin's lymphoma, chronic lymphocytic leukemia, multiple myeloma, breast cancer, head and neck cancer, soft tissue sarcoma, and ovarian cancer. Backfill studies comprised of subjects with diffuse large b-cell lymphoma (DLBCL), B-cell malignancies, pancreatic cancer, small-cell lung cancer, and HPV+HNSCC. Dosage for the Phase 1/2 monotherapy study is seen in FIG. 4.

[4] = Food effect pharmacokinetics, 90 mg QD, cycle 1 day 1; format: in vivo, human; details: for Cmax / AUC(0-t) / Tmax: human, in vivo, oral, 90 mg, 90 mg QD, cycle 1 day 1; for Cmax / AUC(0-t): Mean ± SD; for AUC(0-t): read-out: AUC0-24; for Tmax: median (min, max)
Method: The food effect was evaluated with a 90 mg QD dosage during cycle 1 at day 1 (Table 2; FIG. 3).

[5] = subject with follicular lymphoma, 45 mg BID
[6] = subject with myxofibrosarcoma, 45 mg BID
[7] = subject with pancreatic cancer, 45 mg BID

With CC(C)OC(=O)Nc1ccc(-c2cnc([C@H]3CC[C@H](NC(=O)OC(C)C)CC3)s2)c(S(=O)(=O)NC(C)(C)C)c1 [Compound 67A] the Cmax ([1]; 15 mg BID) was 338 ng/mL, the Tmax ([1]; 15 mg BID) was 2 h and the AUC(0-t) ([1]; 15 mg BID, AUC0-12) was 2630 ng·h/mL. It also gave a Cmax ([1]; 20 mg BID) of 670 ng/mL, a Tmax ([1]; 20 mg BID) of 2 h and an AUC(0-t) ([1]; 20 mg BID, AUC0-12) of 5940 ng·h/mL. For the same compound, the Cmax ([1]; 30 mg BID) was 1210 ng/mL, the Tmax ([1]; 30 mg BID) was 2 h and the AUC(0-t) ([1]; 30 mg BID, AUC0-12) was 10200 ng·h/mL. It also gave an AUC(0-t) ([1]; 45 mg BID, AUC0-12, mean ± SD, n = 2) of 13500 ± 8270 ng·h/mL, a Cmax ([1]; 45 mg BID, mean ± SD) of 1430 ± 362 ng/mL and a Tmax ([1]; 45 mg BID, median (min, max)) of 1.5 h. For the same compound, the AUC(0-t) ([1]; 90 mg QD, AUC0-8, mean ± SD) was 11500 ± 5570 ng·h/mL, the Cmax ([1]; 90 mg QD, mean ± SD) was 1740 ± 930 ng/mL and the Tmax ([1]; 90 mg QD, median (min, max)) was 2.5 h. It also gave an AUC(0-t) ([1]; 130 mg QD, AUC0-8, mean ± SD) of 12800 ± 3980 ng·h/mL, a Cmax ([1]; 130 mg QD, mean ± SD) of 1800 ± 438 ng/mL and a Tmax ([1]; 130 mg QD, median (min, max)) of 2 h. It also gave an AUC(0-t) ([1]; 200 mg QD, AUC0-8, mean ± SD) of 20600 ± 12200 ng·h/mL, a Cmax ([1]; 200 mg QD, mean ± SD) of 3460 ± 2470 ng/mL and a Tmax ([1]; 200 mg QD, median (min, max)) of 3.75 h. The “systemic exposure versus dose” value ([1]; preliminary pharmacokinetic analyses, Phase 1/2 subjects) was “dose proportional systemic exposure”, the “metabolic activity in non-target lesions” value ([2]; subject with DLBCL) was “significant reduction in metabolic activity in non-target lesions” and the target lesions ([2]; subject with DLBCL) was “near complete resolution of target lesions”. For the same compound, the response ([2]; subject with DLBCL, 45 mg BID) was “partial responses; also recorded: confirmed partial response”, the tumor change ([2]; subject with DLBCL, 45 mg BID, Lugano) was −74% and the time on treatment ([2]; subject with DLBCL, 45 mg BID) was at least 126 days. For the same compound, the decrease ([2]; subject with follicular lymphoma (45 mg BID), C3D1) was 42%, the decrease ([2]; subject with follicular lymphoma (45 mg BID), C5D1) was 47% and the response ([2]; subject with follicular lymphoma (45 mg BID, escalated to 130 mg QD at C5D1), end of the sixth month) was “unconfirmed partial response”. The response ([2]; subject with follicular lymphoma, 30 mg BID) was “stable disease with evidence of clinical benefit”, the decrease ([2]; subject with follicular lymphoma, 30 mg BID, C3D1) was 27% and the “duration of stable disease” value [2, 5] was at least 99 days. For the same compound, the tumor change [2, 5] was −42%, the response ([2]; subject with follicular lymphoma, 45 mg BID, at data cut off) was “stable disease with tumor shrinkage” and the overall decrease ([2]; subject with follicular lymphoma, C7D1, after escalation to 130 mg QD at C5D1) was 67%. For the same compound, the response ([2]; subject with leiomyosarcoma) was “stable disease”, the “change by RECIST” value ([2]; subject with leiomyosarcoma, six months) was 0% and the decrease ([2]; subject with myxofibrosarcoma) was 30%. For the same compound, the response [2, 6] was “partial responses; also recorded: unconfirmed partial response”, the tumor change ([2]; subject with myxofibrosarcoma, 45 mg BID, RECIST v1.1) was −30% and the time on treatment [2, 6] was at least 250 days. For the same compound, the response ([2]; subject with ovarian cancer) was “stable disease”, the “decrease by RECIST v1.1” value ([2]; subject with ovarian cancer, two months) was 29% and the “decrease by RECIST” value ([2]; subject with pancreatic cancer) was 19%. For the same compound, the “drop in CA19-9” value ([2]; subject with pancreatic cancer) was at least 70%, the “duration of stable disease” value [2, 7] was 111 days and the response [2, 7] was “stable disease with tumor shrinkage; also recorded: stable disease with evidence of clinical benefit”. The tumor change [2, 7] was −19%, the “Compound 67A-related myelosuppression, serious adverse events, study discontinuation, or deaths” value [3] was “no reported” and the dose-limiting toxicity ([3]; 6 cohorts (15, 20, 30, 45 mg BID; 90, 130 mg QD), 28-day cycles) was “No subjects experienced a dose-limiting toxicity”. The “Grade 1/2 constipation (related adverse event)” value ([3]; n=2) was 8.7%, the “Grade 1/2 nausea (related adverse event)” value ([3]; n=3) was 13% and the “subjects with a Compound 67A-related adverse event” value ([3]; six subjects) was 26.1%. For the same compound, the “impact of food on drug exposure” value ([4]; 90 mg QD food-effect cohort) was “minimal impact of food on drug exposure”, the Cmax ([4]; Fasted Patients (n = 3)) was 574 ± 304 ng/mL and the AUC(0-t) ([4]; Fasted Patients (n = 3)) was 5950 ± 2900 ng·h/mL. For the same compound, the Tmax ([4]; Fasted Patients (n = 3)) was 4 h, the Cmax ([4]; Fed Patients (n = 3)) was 458 ± 129 ng/mL and the AUC(0-t) ([4]; Fed Patients (n = 3)) was 6430 ± 1840 ng·h/mL. It also gave a Tmax ([4]; Fed Patients (n = 3)) of 8 h.
